Patent publication USRE45173E1, “Inhibitors of CYP 17” (Novartis AG, priority 2009, dated 2014)

Assays:
[1] = biological target: recombinant human CYP17 enzyme (Homo sapiens (Human), UniProt P05093); experiment: Cytochrome P450, 17-20 lyase (CYP17-lyase) assay, tritiated acetic acid release from 17-α-hydroxy pregnenolone [21-3H]; assay type: biochemical; details: human CYP17, substrate 0.25 μM; read-out: Lyase IC 50 nM Human/Rat (Human)
How it was run: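 Membranes of cells expressing human CYP17 incubated 90 min at room temperature with [21-3H]17α-hydroxypregnenolone and 4.2 mM NADPH in 50 mM phosphate pH 7.5. Released tritiated acetic acid separated from steroids by charcoal and counted by scintillation; IC50 from sigmoidal fit of % inhibition.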

rat CYP17 lyase = rat CYP17 lyase (Rattus norvegicus (Rat), UniProt P11715); experiment: rat CYP 17 Lyase model, rat testes microsomes as the source; assay type: biochemical; details: for inhibition at 0.1 µM: 100 nM compound, read-out: rCYP17 Lyase % Inh @ 100 nM; for IC50: rat testes microsomes, substrate 0.5 μM, read-out: Lyase IC 50 nM Human/Rat (Rat)
rat CYP17 lyase, sequence (P11715 whole entry): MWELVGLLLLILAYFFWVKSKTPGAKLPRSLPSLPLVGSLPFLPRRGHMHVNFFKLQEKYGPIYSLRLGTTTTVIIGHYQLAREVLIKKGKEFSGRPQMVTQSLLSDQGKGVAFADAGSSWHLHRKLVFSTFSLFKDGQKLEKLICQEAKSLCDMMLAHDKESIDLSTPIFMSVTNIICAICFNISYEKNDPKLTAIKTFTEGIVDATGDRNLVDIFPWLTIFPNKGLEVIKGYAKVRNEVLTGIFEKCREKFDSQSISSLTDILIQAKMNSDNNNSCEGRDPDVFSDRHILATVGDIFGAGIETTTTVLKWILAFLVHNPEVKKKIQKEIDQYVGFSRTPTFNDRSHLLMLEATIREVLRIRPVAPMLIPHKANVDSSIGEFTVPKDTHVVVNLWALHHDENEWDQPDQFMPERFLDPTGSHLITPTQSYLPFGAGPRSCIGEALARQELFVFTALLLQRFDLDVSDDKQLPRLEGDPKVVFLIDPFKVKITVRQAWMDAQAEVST
Description: For routine screening, the assay was set up with 16 μg of enzyme in 50 μL reaction volume. 17α-hydroxy pregnenolone [21-3H] was added to a final concentration of 0.25 μM. NADPH is used at a final concentration of 4.2 mM. Total reaction volume was made up to 50 μL with 50 mM Phosphate buffer pH 7.5. The reaction mixture was incubated at room temperature for 90 minutes with gentle shaking. The reaction was stopped by the addition of 100 μL of buffer. 500 μL of 5% freshly prepared activated charcoal was added to the solution and mixed well by vortexing. The samples were centrifuged at 17568×g for 5 minutes. (14000 rpm). The supernatant was carefully transferred to fresh tube and 1.3 mL of scintillation fluid was added, mixed by vortexing.
The radioactivity was measured in a 1450 MicroBeta TriLux™ scintillation counter from Wallac-Perkin Elmer®, USA. The measurements were carried out in 2.0 mL Eppendorforf™ tubes. Each tube was counted for 1 minute. The amount of tritiated acetic acid released is proportional to the lyase activity. Percent lyase activity in presence of inhibitor was calculated using the formula given below.
[formula] • Sample: Enzyme reaction in presence of inhibitor. • Positive control: Enzyme reaction without inhibitor but containing DMSO at 1% final concentration. • Blank-Contains all reagents except enzyme. % Inhibition=100%−% Lyase activity
For IC50 determination, the % inhibition was plotted as a function of inhibitor concentration. The data was fitted to sigmoidal equation using Graphpad Prism® software IV to generate IC50 values.
For the rat CYP 17 Lyase Model:
The same procedure described above was used but using rat testes microsomes as the source and with a substrate concentration of 0.5 μM.

recombinant human CYP17 enzyme, sequence (P05093 whole entry): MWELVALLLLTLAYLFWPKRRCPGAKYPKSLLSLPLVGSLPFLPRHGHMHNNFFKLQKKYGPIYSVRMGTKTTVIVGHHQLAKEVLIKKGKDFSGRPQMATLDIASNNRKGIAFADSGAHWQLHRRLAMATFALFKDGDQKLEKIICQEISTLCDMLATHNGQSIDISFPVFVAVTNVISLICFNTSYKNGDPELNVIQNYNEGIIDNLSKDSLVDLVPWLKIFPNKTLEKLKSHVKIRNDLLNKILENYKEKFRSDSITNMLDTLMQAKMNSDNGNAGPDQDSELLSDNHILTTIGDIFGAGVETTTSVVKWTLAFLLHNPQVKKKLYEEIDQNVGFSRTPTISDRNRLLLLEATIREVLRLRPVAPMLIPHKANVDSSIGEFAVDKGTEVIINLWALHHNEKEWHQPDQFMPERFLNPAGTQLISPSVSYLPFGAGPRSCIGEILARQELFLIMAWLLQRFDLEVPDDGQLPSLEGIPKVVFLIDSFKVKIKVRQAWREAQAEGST

Row | SMILES | IC50 [1] | inhibition at 0.1 µM (rat CYP17 lyase) | IC50 (rat CYP17 lyase)
1 | Cc1ccncc1N1CCN(c2ccc3occ(C)c3c2)C1=O [Example 29A, 1-(3-Methyl-benzofuran-5-yl)-3-(4-methyl-pyridin-3-yl)-imidazolidin-2-one] | 3 nM | 98% | –
2 | Cc1cccc(N2CCN(c3cnccc3C)C2=O)c1 [Example 55A, 1-(4-Methyl-pyridin-3-yl)-3-m-tolyl-imidazolidin-2-one] | 9 nM | – | 7 nM
3 | Cc1ccncc1N1CCN(c2cccc(C(F)(F)F)c2)C1=O [Example 70A, 1-(4-Methyl-pyridin-3-yl)-3-(3-trifluoromethyl-phenyl)-imidazolidin-2-One] | 6.5 nM | – | 2 nM
4 | Cc1ccncc1N1CCN(c2ccc3nc(Cl)cc(C)c3c2)C1=O [Example 21A, 1-(2-Chloro-4-methyl-quinolin-6-yl)-3-(4-methyl-pyridin-3-yl)-imidazolidin-2-one] | – | 98% | 5 nM
5 | O=C1N(c2cccnc2)CCN1c1ccc2ncsc2c1 [Example 4A, 1-Benzothiazol-6-yl-3-pyridin-3-yl-imidazolidin-2-one] | 77 nM | 59% | –
6 | Cc1ccncc1N1CCN(c2ccc(Cl)s2)C1=O [Example 41A, 1-(5-Chloro-thiophen-2-yl)-3-(4-methyl-pyridin-3-yl)-imidazolidin-2-one] | 10 nM | – | 3 nM
7 | COc1ccncc1N1CCN(c2ccc3ncsc3c2)C1=O [Example 124A, 1-Benzothiazol-6-yl-3-(4-methoxy-pyridin-3-yl)-imidazolidin-2-one] | 23 nM | – | 12 nM
8 | Cc1ccncc1N1CCN(c2ccc(F)cc2)C1=O [Example 18A, 1-(4-Fluoro-phenyl)-3-(4-methyl-pyridin-3-yl)-imidazolidin-2-one] | 76 nM | 88% | 12 nM
9 | Cc1ccncc1N1CCN(c2ccc3[nH]ncc3c2)C1=O [Example 28A, 1-(1H-Indazol-5-yl)-3-(4-methyl-pyridin-3-yl)-imidazolidin-2-one] | 4 nM | 61% | 52 nM
10 | Cc1ccncc1N1CCN(c2ccc(-c3ccccc3)cc2)C1=O [Example 19A, 1-Biphenyl-4-O-3-(4-methyl-pyridin-3-yl)-imidazolidin-2-one] | – | 91% | 11 nM
11 | O=C1N(c2cccnc2)CCCN1c1ccc2ccccc2c1 [Example 10A, 1-Naphthalen-2-yl-3-pyridin-3-yl-tetrahydro-pyrimidin-2-one] | – | 11% | –
12 | Cc1ccncc1N1CCN(c2ccc3[nH]c(=O)cc(C)c3c2)C1=O [Example 22A, 4-Methyl-6-[3-(4-methyl-pyridin-3-yl)-2-oxo-imidazolodin-1yl]1H-quinolin-2-one] | – | 85% | 24 nM
13 | O=C1N(c2cncc(F)c2)CCN1c1ccc2ccccc2c1 [Example 81A, 1-(5-Fluoro-pyridin-3-yl)-3-naphthalen-2-yl-imidazolidin-2-one] | – | 82% | –
14 | CCn1ccc2cc(N3CCN(c4cccnc4)C3=O)ccc21 [Example 2A, 1-(1-Ethyl-1H-indol-5-yl)-3-pyridin-3-yl-imidazolidin-2-one] | – | 23% | –
15 | Cc1ccncc1N1CCN(c2ccc3sccc3c2)C1=O [Example 27A, 1-Benzo[b]thiophen-5-yl-3-(4-methyl-pyridin-3-yl)-imidazolidin-2-one] | 24 nM | 101% | –
16 | COc1ccc2cc(N3CCN(c4cccnc4)C3=O)ccc2c1 [Example 3A, 1-(6-Methoxy-naphthalen-2-yl)-3-pyridin-3-O-imidazolidin-2-one] | – | 31% | –
17 | Cc1ccncc1N1CCN(c2ccc3ccccc3n2)C1=O [Example 23A, 1-(4-Methyl-pyridin-3-yl)-3-quinolin-2-yl-imidazolidin-2-one] | – | 85% | 20 nM
18 | Cc1ccncc1N1CCN(c2ccc3ncsc3c2)C1=O [Example 16A, 1-Benzothiazol-6-yl-3-(4-methyl-pyridin-3-yl)-imidazolidin-2-one] | 6 nM | 94% | 5 nM

Row | SMILES | IC50 [1] | inhibition at 0.1 µM (rat CYP17 lyase) | IC50 (rat CYP17 lyase)
19 | Cc1ccncc1N1CCN(c2ccsc2)C1=O [Example 31A, 1-(4-Methyl-pyridin-3-yl)-3-thiophen-3-yl-imidazolidin-2-one] | 108 nM | 74% | –
20 | COc1cncc(N2CCN(c3cnccc3C)C2=O)c1 [Example 32A, 1-(5-Methoxy-pyridin-3-yl)-3-(4-methyl-pyridin-3-yl)-imidazolidin-2-one] | – | 73% | –
21 | Cc1ccncc1N1CCN(c2cc3ccccc3s2)C1=O [Example 26A, 1-Benzo[b]thiophen-2-yl-3-(4-methyl-pyridin-3-yl)-imidazolidin-2-one] | 15 nM | 100% | –
22 | COc1cc(N2CCN(c3cnccc3C)C2=O)ccn1 [Example 72A, 1-(2-Methoxy-pyridin-4-yl)-3-(4-methyl-pyridin-3-yl)-imidazolidin-2-one] | 9.4 nM | – | 10 nM
23 | Cc1ccncc1N1CCN(c2ccc3c(C)n[nH]c3c2)C1=O [Example 102A, 1-(3-Methyl-1H-indazol-6-yl)-3-(4-methyl-pyridin-3-yl)-imidazolidin-2-one] | 7.5 nM | – | 5 nM
24 | Cc1ccncc1N1CCN(c2cnc3ccccc3c2)C1=O [Example 24A, 1-(4-Methyl-pyridin-3-yl)-3-quinolin-3-yl-imidazolidin-2-one] | 72 nM | 98% | –
25 | O=C1N(c2cncc(C(F)(F)F)c2)CCN1c1ccc2ccccc2c1 [Example 79A, 1-Naphthalen-2-yl-3-(5-trifluoromethyl-pyridin-3-yl)-imidazolidin-2-one] | – | 3.6% | –
26 | CCN1C(=O)CCc2cc(N3CCN(c4cccnc4)C3=O)ccc21 [Example 5A, 1-Ethyl-6-(2-oxo-3-pyridin-3-yl-imidazolidin-1-yl)-3,4-dihydro-1H-quinolin-2-one] | – | 51% | –
27 | O=C1N(c2cccnc2)CCCN1c1ccc2sccc2c1 [Example 13A, 1-Benzo[b]thiophen-5-yl-3-pyridin-3-yl-tetrahydro-pyrimidin-2-one] | – | 9% | –
28 | Cc1ccncc1N1CCN(c2ccc3ccccc3c2)C1=O [Example 14A, 1-(4-Methyl-pyridin-3-yl)-3-naphthalen-2-yl-imidazolidin-2-one] | 17 nM | 102% | 2 nM
29 | O=C1N(c2cccnc2)CCN1c1ccc2ccccc2c1 [Example 1A, 1-Naphthalen-2-yl-3-pyridin-3-yl-imidazolidin-2-one] | 34 nM | 84% | 35 nM
30 | Cc1ccncc1N1CCN(c2ccc3ncccc3c2)C1=O [Example 52A, 1-(4-Methyl-pyridin-3-yl)-3-quinolin-6-yl-imidazolidin-2-one] | 96 nM | 97% | 5 nM
31 | O=C1N(c2cccnc2)CCN1c1ccc2c(c1)CC/C2=N\O [Example 12A] | – | 17% | –
32 | CCN1C(=O)CCc2cc(N3CCN(c4cnccc4C)C3=O)ccc21 [Example 17A, 1-Ethyl-6-[3-(4-methyl-pyridin-3-yl)-2-oxo-imidazolidin-1-yl]-3,4-dihydro-1H-quinolin-2-one] | – | 83% | 21 nM
33 | O=C1N(c2cncc(Cl)c2)CCN1c1ccc2ccccc2c1 [Example 80A] | – | 57% | –
34 | Cc1ccncc1N1CCN(c2ccc(F)nc2)C1=O [Example 30A, 1-(6-Fluoro-pyridin-3-yl)-3-(4-methyl-pyridin-3-yl)-imidazolidin-2-one] | – | 76% | –
35 | O=C1N(c2cccnc2)CCN1c1ccc2scnc2c1 [Example 9A, 1-Benzothiazol-5-yl-3-pyridin-3-yl-imidazolidin-2-one] | – | 18% | –
